Results as given in patent US10570122B2, “Compounds with anti-tumoral activity” (AB Science, priority 2015, dated 2020).

Tests used:
BXPC3 = assay: CellTiter-Blue cell-based survival/proliferation assay, BXPC3; settings: Homo sapiens, BXPC-3; BXPC3 pancreas tumor cell line, 48 h
Outline: (§1)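 Compounds, diluted tenfold serially over 0–10 μM, are applied to 1·10^4 seeded cells per well for 48 h at 37 °C. Resorufin formed during a further 4 h with CellTiter-Blue is detected by fluorescence emission at 590 nm.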

REC1 = assay: CellTiter-Blue cell-based survival/proliferation assay, REC1; settings: Homo sapiens, Lymphoma cell line REC1, 48 h, read-out: Anti-tumoral activity (measured IC50) REC1
Protocol: (§2) Cell-Based Proliferation Screening of Compounds
(§3) CellTiter-Blue cell-based survival/proliferation assay (Promega G8080) was performed on tumor cell lines. A total of 1·10^4 cells/well/50 μl were seeded in a 96-wells plate. Treatment was initiated by addition of a 2× drug solution of 1/10 serial dilutions ranging from 0 to 10 μM. Cells were grown for 48 h at 37° C. and then incubated with 10 μl/well of Promega CellTiter-Bleue reagent for 4 h at 37° C. The amount of resorufin dye formed was quantified by its fluorescence emission at 590 nm using a scanning multiwell spectrophotometer (OPTIMA, BMG labtech, France). A blank well without cells was used as a background control for the spectrophotometer.

MDAMB231 = assay: CellTiter-Blue cell-based survival/proliferation assay, MDAMB231; settings: Homo sapiens, MDA-MB-231; MDAMB231 breast tumor cell line, 48 h
Outline: as §1

DU145 = assay: CellTiter-Blue cell-based survival/proliferation assay, DU145; settings: Homo sapiens, DU-145; DU145 prostate tumor cell line, 48 h
Outline: as §1

H1299 = assay: CellTiter-Blue cell-based survival/proliferation assay, H1299; settings: Homo sapiens, NCI-H1299; H1299 lung tumor cell line, 48 h
Outline: as §1

A498 = assay: CellTiter-Blue cell-based survival/proliferation assay, A498; settings: Homo sapiens; A498 kidney tumor cell line, 48 h
Outline: as §1

KARPAS299 = assay: CellTiter-Blue cell-based survival/proliferation assay, KARPAS299; settings: Homo sapiens, KARPAS-299, Lymphoma cell line KARPAS299, 48 h, read-out: Anti-tumoral activity (measured IC50) KARPAS299
Protocol: as §2, §3

PC3 = assay: CellTiter-Blue cell-based survival/proliferation assay, PC3; settings: Homo sapiens, PC-3; PC3 prostate tumor cell line, 48 h
Outline: as §1

TOV112D = assay: CellTiter-Blue cell-based survival/proliferation assay, TOV112D; settings: Homo sapiens; TOV112D ovary tumor cell line, 48 h
Outline: as §1

AGS = assay: CellTiter-Blue cell-based survival/proliferation assay, AGS; settings: Homo sapiens; AGS stomach tumor cell line, 48 h
Outline: as §1

PANC1 = assay: CellTiter-Blue cell-based survival/proliferation assay, PANC1; settings: Homo sapiens, PANC-1; PANC_1 pancreas tumor cell line, 48 h
Outline: as §1

CALU6 = assay: CellTiter-Blue cell-based survival/proliferation assay, CALU6; settings: Homo sapiens, Calu-6; CALU6 lung tumor cell line, 48 h
Outline: as §1

OPM2 = assay: CellTiter-Blue cell-based survival/proliferation assay, OPM2; settings: Homo sapiens, OPM-2, Myeloma cell line OPM2, 48 h, read-out: Anti-tumoral activity (measured IC50) OPM2
Outline: as §1

MESSA = assay: CellTiter-Blue cell-based survival/proliferation assay, MESSA; settings: Homo sapiens, MES-SA; MESSA ovary tumor cell line, 48 h
Outline: as §1

BT20 = assay: CellTiter-Blue cell-based survival/proliferation assay, BT20; settings: Homo sapiens, BT-20; BT20 breast tumor cell line, 48 h
Outline: as §1

HEPG2 = assay: CellTiter-Blue cell-based survival/proliferation assay, HEPG2; settings: Homo sapiens; HEPG2 liver tumor cell line, 48 h
Outline: as §1

DLD1 = assay: CellTiter-Blue cell-based survival/proliferation assay, DLD1; settings: Homo sapiens, DLD-1; DLD_1 colorectal tumor cell line, 48 h
Outline: as §1

CLS354 = assay: CellTiter-Blue cell-based survival/proliferation assay, CLS354; settings: Homo sapiens, CLS-354; CLS354_4 head & neck tumor cell line, 48 h
Outline: as §1

HUT78 = assay: CellTiter-Blue cell-based survival/proliferation assay, HUT78; settings: Homo sapiens, Lymphoma cell line HUT78, 48 h, read-out: Anti-tumoral activity (measured IC50) HUT78
Protocol: as §2, §3

A549 = assay: CellTiter-Blue cell-based survival/proliferation assay, A549; settings: Homo sapiens; A549 lung tumor cell line, 48 h
Outline: as §1

HL60 = assay: CellTiter-Blue cell-based survival/proliferation assay, HL60; settings: Homo sapiens, HL-60, Leukemia cell line HL60, 48 h, read-out: Anti-tumoral activity (measured IC50) HL60
Outline: as §1

HEP2 = assay: CellTiter-Blue cell-based survival/proliferation assay, HEP2; settings: Homo sapiens, HEp-2; HEP2 head & neck tumor cell line, 48 h
Outline: as §1

PLCPRF5 = assay: CellTiter-Blue cell-based survival/proliferation assay, PLCPRF5; settings: Homo sapiens, PLC-PRF-5; PLC_PRF5 liver tumor cell line, 48 h
Outline: as §1

[1] = tested on: panel of about 34 human tumor cell lines; assay: Cell-based proliferation screening on panel of tumor cell lines; settings: solid tumor cell line, cell line unknown, 48 h, read-out: IC50, solid tumor cell line of column 6 (last section of Table 3)
Outline: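 CellTiter-Blue survival assay with 1·10^4 cells/well, each line treated 48 h at 37° C with 1/10 serial dilutions from 0 to 10 μM. Resorufin formed during a 4 h reagent incubation is read by fluorescence at 590 nm. A cell-free blank serves as background.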

HGC27 = assay: CellTiter-Blue cell-based survival/proliferation assay, HGC27; settings: Homo sapiens, HGC-27; HGC27 stomach tumor cell line, 48 h
Outline: as §1

HCT116 = assay: CellTiter-Blue cell-based survival/proliferation assay, HCT116; settings: Homo sapiens, HCT-116; HCT116 colorectal tumor cell line, 48 h
Outline: as §1

ACHN = assay: CellTiter-Blue cell-based survival/proliferation assay, ACHN; settings: Homo sapiens; ACHN kidney tumor cell line, 48 h
Outline: as §1

SW579 = assay: CellTiter-Blue cell-based survival/proliferation assay, SW579; settings: Homo sapiens; SW579 head & neck tumor cell line, 48 h
Outline: as §1

Compound: Cc1ccc(OCCN(C)C)cc1Nc1ncc(-c2ccc(-n3cccn3)cc2)o1 [Example 030, [5-(2-Dimethylamino-ethoxy)-2-methyl-phenyl]-[5-(4-pyrazol-1-yl-phenyl)-oxazol-2-yl]-amine]
- IC50 (BXPC3): > 1000 nM
- IC50 (REC1): > 1000 nM
- IC50 (MDAMB231): > 1000 nM
- IC50 (DU145): > 1000 nM
- IC50 (H1299): > 1000 nM
- IC50 (A498): > 1000 nM
- IC50 (KARPAS299): > 1000 nM
- IC50 (PC3): > 1000 nM
- IC50 (TOV112D): > 1000 nM
- IC50 (AGS): > 1000 nM
- IC50 (PANC1): > 1000 nM
- IC50 (CALU6): > 1000 nM
- IC50 (OPM2): > 1000 nM
- IC50 (MESSA): > 1000 nM
- IC50 (BT20): > 1000 nM
- IC50 (HEPG2): > 1000 nM
- IC50 (DLD1): > 1000 nM
- IC50 (CLS354): > 1000 nM
- IC50 (HUT78): > 1000 nM
- IC50 (A549): > 1000 nM
- IC50 (HL60): > 1000 nM
- IC50 (HEP2): > 1000 nM
- IC50 (PLCPRF5): > 1000 nM
- IC50 [1]: > 1000 nM
- IC50 (HGC27): > 1000 nM
- IC50 (HCT116): > 1000 nM
- IC50 (ACHN): > 1000 nM
- IC50 (SW579): > 1000 nM

Compound: CNC(=O)c1ccc(C)c(Nc2ncc(-c3ccc(-n4cccn4)cc3)o2)c1 [Example 031, 4,N-Dimethyl-3-[5-(4-pyrazol-1-yl-phenyl)-oxazol-2-ylamino]-benzamide]
- IC50 (BXPC3): > 1000 nM
- IC50 (REC1): > 1000 nM
- IC50 (MDAMB231): > 1000 nM
- IC50 (DU145): > 1000 nM
- IC50 (H1299): > 1000 nM
- IC50 (A498): > 1000 nM
- IC50 (KARPAS299): 100 to 500 nM
- IC50 (PC3): > 1000 nM
- IC50 (TOV112D): > 1000 nM
- IC50 (AGS): > 1000 nM
- IC50 (PANC1): > 1000 nM
- IC50 (CALU6): > 1000 nM
- IC50 (OPM2): > 1000 nM
- IC50 (MESSA): > 1000 nM
- IC50 (BT20): > 1000 nM
- IC50 (HEPG2): > 1000 nM
- IC50 (DLD1): > 1000 nM
- IC50 (CLS354): > 1000 nM
- IC50 (HUT78): > 1000 nM
- IC50 (A549): > 1000 nM
- IC50 (HL60): > 1000 nM
- IC50 (HEP2): > 1000 nM
- IC50 (PLCPRF5): > 1000 nM
- IC50 [1]: > 1000 nM
- IC50 (HGC27): > 1000 nM
- IC50 (HCT116): > 1000 nM
- IC50 (ACHN): > 1000 nM
- IC50 (SW579): > 1000 nM

Compound: Cc1ccc(C(=O)NCCN2CCN(C)CC2)cc1Nc1ncc(-c2ccc(-n3cccn3)cc2)o1 [Example 032, 4-Methyl-N-[2-(4-methyl-piperazin-1-yl)-ethyl]-3-[5-(4-pyrazol-1-yl-phenyl)-oxazol-2-ylamino]-benzamide]
- IC50 (BXPC3): > 1000 nM
- IC50 (REC1): > 1000 nM
- IC50 (MDAMB231): > 1000 nM
- IC50 (DU145): > 1000 nM
- IC50 (H1299): > 1000 nM
- IC50 (A498): > 1000 nM
- IC50 (KARPAS299): > 1000 nM
- IC50 (PC3): > 1000 nM
- IC50 (TOV112D): > 1000 nM
- IC50 (AGS): > 1000 nM
- IC50 (PANC1): > 1000 nM
- IC50 (CALU6): > 1000 nM
- IC50 (OPM2): > 1000 nM
- IC50 (MESSA): > 1000 nM
- IC50 (BT20): > 1000 nM
- IC50 (HEPG2): > 1000 nM
- IC50 (DLD1): > 1000 nM
- IC50 (CLS354): > 1000 nM
- IC50 (HUT78): > 1000 nM
- IC50 (A549): > 1000 nM
- IC50 (HL60): > 1000 nM
- IC50 (HEP2): > 1000 nM
- IC50 (PLCPRF5): > 1000 nM
- IC50 [1]: > 1000 nM
- IC50 (HGC27): > 1000 nM
- IC50 (HCT116): > 1000 nM
- IC50 (ACHN): > 1000 nM
- IC50 (SW579): > 1000 nM

Compound: CCOCc1ccc(C)c(Nc2ncc(-c3ccc(-n4cncn4)cc3)o2)c1 [Example 034, (5-Ethoxymethyl-2-methyl-phenyl)-[5-(4-[1,2,4]triazol-1-yl-phenyl)-oxazol-2-yl]-amine]
- IC50 (BXPC3): > 1000 nM
- IC50 (REC1): 100 to 500 nM
- IC50 (MDAMB231): > 1000 nM
- IC50 (DU145): > 1000 nM
- IC50 (H1299): > 1000 nM
- IC50 (A498): > 1000 nM
- IC50 (KARPAS299): 100 to 500 nM
- IC50 (PC3): > 1000 nM
- IC50 (TOV112D): 500 to 1000 nM
- IC50 (AGS): > 1000 nM
- IC50 (PANC1): > 1000 nM
- IC50 (CALU6): > 1000 nM
- IC50 (OPM2): > 1000 nM
- IC50 (MESSA): > 1000 nM
- IC50 (BT20): > 1000 nM
- IC50 (HEPG2): > 1000 nM
- IC50 (DLD1): > 1000 nM
- IC50 (CLS354): 500 to 1000 nM
- IC50 (HUT78): 100 to 500 nM
- IC50 (A549): > 1000 nM
- IC50 (HL60): > 1000 nM
- IC50 (HEP2): 500 to 1000 nM
- IC50 (PLCPRF5): > 1000 nM
- IC50 [1]: > 1000 nM
- IC50 (HGC27): > 1000 nM
- IC50 (HCT116): > 1000 nM
- IC50 (ACHN): > 1000 nM
- IC50 (SW579): > 1000 nM
